Laboratory results: publication PMC9698768, “Laminaria japonica Peptides Suppress Liver Cancer by Inducing Apoptosis: Possible Signaling Pathways and Mechanism” (Marine Drugs, 2022)
Residues, ends and D or L forms follow the SMILES beside them.

Key:
H22 = assay type: cell-based; conditions: 48 h
Description: (§1) Liver cancer cells (HuH7, HepG2, and H22) and human liver cells (HL-7702) were obtained from the Cell Bank of the Chinese Academy of Sciences (Shanghai, China). Fresh L. japonica was acquired from the South China Agricultural University (Guangzhou, China) and identified by Professor C. Wang (South China Agricultural University, Guangzhou, China). The annexin V-FITC/PI staining assay kit and propidium iodide (PI) reagents were supplied by Beyotime (Shanghai, China). Dulbecco’s modified Eagle medium (DMEM), fetal bovine serum (FBS), and penicillin-streptomycin (PS) were purchased from Gibco BRL (Life Technologies, Grand Island, NY, USA). The antibodies used in the current study were acquired from Cell Signaling Technology, Inc. (Manchester, NH, USA). Cell lines were grown in specific medium supplemented with 10% FBS. Cells were grown in a humidified atmosphere with 5% CO2 in incubators maintained at 37 °C. Balb/c mice (6–8 weeks old, 20 ± 2 g) were acquired from the Guangdong Experimental Animal Center. Ab MTT assay was used to detect the cytotoxicity activity of LJPs in vitro [42]. Briefly, 5 × 10^3 cells/well were seeded in 96-well plates, and varying concentrations of LJP were added. After 48 h, the MTT solution (5 mg/mL) was added for an additional 4 h. The absorbance was measured at 570 nm using a microplate reader (Bio-Rad; Hercules, CA, USA) after 100 μL of DMSO was added. The IC^50 values were determined by the non-linear multipurpose curve-fitting program.

HepG2 = assay type: cell-based, human; conditions: 48 h
Description: as §1

HuH7 = assay type: cell-based, human; conditions: 48 h
Description: as §1

in vitro = assay type: cell-based; conditions: human
Description: as §1, with “Briefly, 5 × 10^3 cells/well were seeded in 96-well plates, and varying concentrations of LJP were added. After 48 h, the MTT solution (5 mg/mL) was added for an additional 4 h.” left out

Row | IC50 (H22) [µM] | IC50 (HepG2) [µM] | IC50 (HuH7) [µM] | IC50 at 48 h (in vitro) [µM] | Structure (SMILES)
1 | 720 ± 50 | 600 ± 80 | 410 ± 40 |  | C[C@@H](O)[C@H](N)C(=O)N[C@@H](Cc1ccccc1)C(=O)N[C@@H](CCCCN)C(=O)N[C@@H](Cc1c[nH]cn1)C(=O)NCC(=O)O [LJP-12] (H-TFKHG-OH)
2 | 1440 ± 120 | 1660 ± 110 | 2530 ± 240 |  | C[C@H](NC(=O)[C@H](Cc1c[nH]c2ccccc12)NC(=O)[C@H](CO)NC(=O)[C@H](Cc1ccc(O)cc1)NC(=O)CNC(=O)[C@H](C)NC(=O)[C@@H](N)Cc1c[nH]cn1)C(=O)O [LJP-7] (H-HAGYSWA-OH)
3 | 760 ± 80 | 630 ± 50 | 440 ± 40 |  | CC(C)[C@H](NC(=O)[C@H](Cc1ccc(O)cc1)NC(=O)[C@@H](NC(=O)[C@H](Cc1c[nH]cn1)NC(=O)[C@H](CO)NC(=O)[C@@H](N)Cc1ccccc1)[C@@H](C)O)C(=O)O [LJP-8] (H-FSHTYV-OH)
4 | 700 ± 70 | 610 ± 70 | 490 ± 50 |  | N[C@@H](Cc1ccc(O)cc1)C(=O)N[C@@H](CCC(=O)O)C(=O)N[C@@H](Cc1c[nH]cn1)C(=O)N[C@@H](CO)C(=O)N[C@@H](Cc1c[nH]cn1)C(=O)NCC(=O)O [LJP-11] (H-YEHSHG-OH)
5 | 3530 ± 340 | 2690 ± 220 | 3520 ± 350 |  | C[C@H](NC(=O)[C@@H](N)Cc1c[nH]cn1)C(=O)N[C@@H](CO)C(=O)N[C@@H](Cc1c[nH]c2ccccc12)C(=O)N[C@@H](CCC(=O)O)C(=O)N[C@@H](Cc1c[nH]cn1)C(=O)O [LJP-10] (H-HASWEH-OH)
6 | 510 ± 70 | 690 ± 80 | 530 ± 50 |  | N[C@@H](Cc1ccccc1)C(=O)N[C@@H](CCC(=O)O)C(=O)N[C@@H](Cc1c[nH]cn1)C(=O)N[C@@H](CO)C(=O)NCC(=O)O [LJP-9] (H-FEHSG-OH)

Second part, the compound before the results:

Row | Structure (SMILES) | IC50 (H22) [µM] | IC50 (HepG2) [µM] | IC50 (HuH7) [µM] | IC50 at 48 h (in vitro) [µM]
7 | C[C@@H](O)[C@H](NC(=O)[C@H](CO)NC(=O)[C@@H](N)Cc1ccccc1)C(=O)N[C@@H](Cc1c[nH]cn1)C(=O)NCC(=O)NCC(=O)O [LJP-5] (H-FSTHGG-OH) | 1490 ± 130 | 2780 ± 260 | 2440 ± 220 | 
8 | N[C@@H](CCC(=O)O)C(=O)NCC(=O)N[C@@H](Cc1c[nH]cn1)C(=O)NCC(=O)N[C@@H](Cc1ccccc1)C(=O)O [LJP-4] (H-EGHGF-OH) | 680 ± 70 | 650 ± 70 | 620 ± 70 | 
9 | NCCCC[C@H](NC(=O)[C@@H](N)Cc1ccccc1)C(=O)N[C@@H](CCC(=O)O)C(=O)N[C@@H](Cc1c[nH]cn1)C(=O)NCC(=O)N[C@@H](Cc1ccc(O)cc1)C(=O)O [LJP-6] (H-FKEHGY-OH) | > 4000 | 3060 ± 310 | > 4000 | 
10 | CC(C)C[C@H](NC(=O)[C@H](Cc1c[nH]cn1)NC(=O)[C@H](Cc1ccccc1)NC(=O)CNC(=O)[C@@H](N)CCC(=O)O)C(=O)O [LJP-1] (H-EGFHL-OH) | 360 ± 30 | 450 ± 50 | 480 ± 50 | 7760 ± 710
11 | CC(C)C[C@H](N)C(=O)N[C@@H](Cc1c[nH]c2ccccc12)C(=O)N[C@@H](CCC(=O)O)C(=O)N[C@@H](Cc1c[nH]cn1)C(=O)N[C@@H](CO)C(=O)N[C@@H](Cc1c[nH]cn1)C(=O)O [LJP-2] (H-LWEHSH-OH) | 620 ± 50 | 1710 ± 130 | 2250 ± 220 | 
12 | N=C(N)NCCC[C@H](NC(=O)[C@H](Cc1c[nH]cn1)NC(=O)[C@H](CO)NC(=O)[C@@H](N)Cc1ccccc1)C(=O)NCC(=O)N[C@@H](Cc1c[nH]cn1)C(=O)O [LJP-3] (H-FSHRGH-OH) | 1700 ± 150 | > 4000 | 1420 ± 120 | 
